Results published in patent publication US12366570B2, “Cell-based ZNT8 assay” (THE JOHNS HOPKINS UNIVERSITY, priority 2019, dated 2025).

Tests used:
[1] = system: endogenous ZnT8 in EndoC-βH1 cells; experiment: In-cell ZnT8-ELISA tracking the endogenous ZnT8 level under stressor exposure; format: cell-based, human
Experimental: Stressor exposures. PA-BSA conjugation was prepared by adding PA powder to a final concentration of 8 mM in 1.6 mM FFA-free BSA (Sigma, Cat. #A7030-50G) pre-dissolved in 135 mM NaCl, 3.6 mM KCl, 0.5 mM MgCl2, and 10 mM HEPES (pH 7.4). The mixture was incubated with gentle stir at 37° C. and then filter-sterilized and stored at 4° C. as described previously (79). When added to the cell culture, the PA-BSA mixture was diluted 13.3-fold with supplement of glucose to make a 1× Glc+PA solution containing 0.6 mM PA and 48 mM Glc. A cytokine cocktail was prepared before each experiment by mixing individual stock solutions of IL-1β, IFN-γ, IL-17, […] at respective concentrations used previously on human islets and EndoC-PHI cells (37). 1× cytokine cocktail in the culture medium contained 5 ng/ml IL-1β, 10 ng/ml TNF-α, 50 ng/ml IFN-γ and 100 ng/ml IL-17 All cytokines were provided by R&D Systems (Minneapolis, MN, USA). […] After a designated exposure period, the endogenous ZnT8 level in each well was analyzed along with stress-induced cytotoxicity, GSIS and cellular insulin content. […]
In-cell ELISAs. […] The HRP reaction was terminated at 5 min by transferring the reaction mixture to a 96-well opaque microplate for chemiluminescence quantification on a FlexStation-3 multi-mode microplate reader.

EndoC-βH1 cells [2] = experiment: Total cellular insulin content, HTRF insulin assay; format: cell-based, human; details: 24 hr
Experimental: GSIS and insulin quantification. EndoC-βH1 cells with dose titrations of Glc+PA, zinc or cytokines cocktail in a 96-well plate were switched to a Krebs buffer (Alfa Aesar, cat. #J67795). After cell starvation in Krebs buffer for 1 h, EndoC-βH1 cells were replaced with fresh Krebs buffer containing 20 mM glucose plus 45 μM IBMX. After 45 min, the Krebs buffer was collected for measurement of secreted insulin. Cells were then lysed by 100 μl/well Krebs buffer with 1% DDM. Total insulin content was measured in 100-fold diluted cell lysate, A homogeneous time resolved fluorescence (HTRF) based ultra-sensitive insulin kit (Cisbio, cat. #62IN2PEG) was used to detect both secreted and total insulin as described previously (60).

EndoC-βH1 cells [3] = experiment: CellTox Green cytotoxicity assay; format: cell-based
Experimental: Cytotoxicity Assay. Cell culture and experiments were performed in a 96-well plate in culture media without phenol red (Sigma, Cat. #D4947). Cytotoxicity in cell culture after experimental manipulation was continuously monitored based on the change in the fluorescence intensity of a CellTox Green Dye (Promega, Cat. #G8741) that preferentially stained dead cells with a loss of membrane integrity. The dye was 1:1000 diluted in the culture medium and delivered directly to cells at the same time of dose titrations of Glc+PA, zinc and cytokines. CellTox fluorescence signals were recorded on a FlexStation-3 multi-mode microplate reader with eight replicates at 0, 1, 2, 4, 6, 8, 20, 24, 30, and 48 hr following dye and stressor additions. Viable cells in the control cell culture medium produced no appreciable increases in CellTox fluorescence due to an excellent tolerance of EndoC-βH1 cells to the dye. At the end of experiment, all cells were lysed by adding detergent (DDM) to 0.1% in each well, and the maximum CellTox fluorescence intensity was recoded and used for normalization of the CellTox fluorescence intensity.
(§1) SLC30A8 knockdown. To perform gene silencing by RNA interference, a master mix of Opti-MEM reduced serum-free medium (Gibco, cat. #31985-062) was pre-mixed with 0.4% RNAiMAX transfection reagent (Invitrogen, cat. #13778-100) and 75 nM ZnT8 targeting or scrambled siRNA (OriGene cat. #SR325944). The solution was then incubated at room temperature for 10 min to form siRNA-lipid complexes before 50 μl of the master mix was added to each well in a 96-well plate. Cells resuspended in standard culturing media were added in a 1:1 volume to give 7×10^4 cells per well. After 24 h, the transfection media were replaced with complete culturing media. After additional 2 days, cells were exposed to 1× cytokine cocktail, followed by immunoblotting and cytotoxicity analysis as described above.

ZnT8 [4] = experiment: Immunoblotting of ZnT8 (mAb20) in total cell lysate; format: cell-based, human; details: 24 hr
Experimental: Immunoblotting. Cells in a 96-well plate were directly resuspended in 50 μl/well 1× Laemmli Sample Buffer (Bio-Rad cat. #1610737). An aliquot of 15 μl SDS-lysate was loaded onto a precast protein gel for SDS-PAGE and subsequent immunoblotting using the following antibodies directed to ZnT8 (mAb20), tubulin (Invitrogen, Cat. #MA1-83256), calnexin (Proteintech, Cat. #10427-2-AP), BAP31 (Proteintech, Cat. #11200-1-AP), IA2 (Proteintech, Cat. #10584-1-AP), TMED3 (Proteintech, Cat. #21902-1-AP), VAMP2 (Proteintech, Cat. #10135-1-AP), Golgin97 (Proteintech, Cat. #12640-1-AP) and HLA-I (Proteintech, Cat. #15240-1-AP). Protein band intensity was measured using ImageJ, and the numerical value for each stressor-treated protein sample was normalized to the untreated sample on the same immunoblot.
as §1, with “After 24 h, the transfection media were replaced with complete culturing media. After additional 2 days, cells were exposed to 1× cytokine cocktail, followed by immunoblotting and cytotoxicity analysis as described above.” left out

ZnT8 [5] = biological target: T1, ZnT8 (Homo sapiens, UniProt Q8IWU4); details: cited from earlier work
T1 sequence (Q8IWU4 1-369): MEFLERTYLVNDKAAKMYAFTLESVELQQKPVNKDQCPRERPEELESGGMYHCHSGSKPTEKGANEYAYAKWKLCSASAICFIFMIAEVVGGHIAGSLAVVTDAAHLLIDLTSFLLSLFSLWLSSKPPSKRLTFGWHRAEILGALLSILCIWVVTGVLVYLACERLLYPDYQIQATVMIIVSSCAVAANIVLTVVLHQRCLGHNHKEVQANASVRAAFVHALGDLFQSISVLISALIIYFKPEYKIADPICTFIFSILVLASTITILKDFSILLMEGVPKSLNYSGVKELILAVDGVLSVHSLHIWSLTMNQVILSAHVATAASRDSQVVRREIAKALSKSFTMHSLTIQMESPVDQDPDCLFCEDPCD

[6] = 1 μM epoxomicin with 1× cytokines

Molecule: [Zn] [zinc]
- endogenous ZnT8 level, dose profile ([1]; extracellular zinc from trace amount (EDTA chelation) to 600 μM): biphasic change
- zinc concentration at the peak of the biphasic ZnT8 profile ([1]; extracellular zinc up to 600 μM): around 10 μM
- cellular insulin content, dose profile (EndoC-βH1 cells [2]; increasing stressor concentration): increased the insulin content
- zinc toxicity (CellTox, FIG. 2F) (EndoC-βH1 cells [3]; 600 μM zinc): zinc toxicity was evident
- cell integrity (CellTox fluorescence) (EndoC-βH1 cells [3]; modest zinc exposure (<=200 μM), compared to untreated cells): did not alter the cell integrity

Molecule: CC[C@H](C)[C@H](NC(=O)[C@H]([C@@H](C)CC)N(C)C(C)=O)C(=O)N[C@H](C(=O)N[C@@H](CC(C)C)C(=O)[C@@]1(C)CO1)[C@@H](C)O [epoxomicin]
- cytokine-induced downregulation of ZnT8 (ZnT8 [4]; [6]): blocked
- ZnT8 expression (ZnT8 [4]; epoxomicin alone, 1 μM): neither altered ZnT8 expression
- cytokine-induced downregulation of insulin (EndoC-βH1 cells [2]; [6]): blocked
- damaged cells (EndoC-βH1 cells [3]; combination of epoxomicin and 1× cytokine, 24 hr exposure): 26.8%

B1: mAb39: anti-ZnT8 monoclonal antibody; heavy chain and light chain SEQ ID NOS:52 and 57 (antibody)
heavy: MGWSCIMFFLVATATDVHSQVQLQQPGAELVKPGASVKLSCKASGYSFTTYWMHWVKQRPGQGLEWVGDINPRNGRTNYNEKSKSKATLTVDISSSTVYMQVSSLTSEDSAVYYCAIWSGAMDYWGPGTSVTVSSAKTTAPSVYPLAPVCGDTTGSSVTLGCLVKGYFPEPVTLTWNSGSLSSDVHTFPALLQSGLYTLSSSVTVTTWPSQTITCNVAHPASSTKVDKKIEPRGSPTHKPCPPCPAPNLLGGPSVFIFPPKIKDVLMISLSPMVTCVVVDVSEDDPDVHVSWFVNNVEVHTAQTQTHREDYNSTIRVVSALPIQHQDWMSGKEFKCKVNNKALPAPIERTISKPKGPVRAPQVYVLPPPEEEMTKKQVTLTCMITDFMPEDIYVEWTNNGQTELNYKNTEPVLDSDGSYFMYSKLRVEKKNWVERNSYSCSVVHEGLHNHHTTKSFSRSPGK
light: MKLPVRLLVLMFWIPASSSDVVMTQTPLSLPVSLGDQPSISCKSSQSLVHNNGNTYLHWYLQKPGQSPKLLIYKVSNRFSGVPDRFSGSGSGTDFTLKISRVEAEDLGVYFCSQTTHVPPTFGGGTKLEIKRADAAPTVSIFPPSSEQLTSGGASVVCFLNNFYPKDINVKWKIDGSERQNGVLNSWTDQDSKDSTYSMSSTLTLTKDEYERHNSYTCEATHKTSTSPIVKSFNRGEC
modifications: mAb39 heavy chain; mAb39 light chain
- binding affinity (ZnT8 [5]): subnanomolar

B2: mAb20: anti-ZnT8 monoclonal antibody; heavy chain and light chain SEQ ID NOS:32 and 37 (antibody)
heavy: MDMRVPAQLLGLLLLWLRGARCQIQLVQSGPELKKPGETVKISCKASGYIFTNYPMHWVKQAPGKGLKWMGWINTYSGVPTHADDFKGRFAFSLETSANSAFLQINNLKNEDTATYFCTRSRITPTGGYAMDYWGQGTSVTVSSAKTTPPSVYPLAPGSAAQTNSMVTLGCLVKGYFPEPVTVTWNSGSLSSGVHTFPAVLQSDLYTLSSSVTVPSSTWPSETVTCNVAHPASSTKVDKKIVPRDCGCKPCICTVPEVSSVFIFPPKPKDVLTITLTPKVTCVVVDISKDDPEVQFSWFVDDVEVHTAQTQPREEQFNSTFRSVSELPIMHQDWLNGKEFKCRVNSAAFPAPIEKTISKTKGRPKAPQVYTIPPPKEQMAKDKVSLTCMITDFFPEDITVEWQWNGQPAENYKNTQPIMDTDGSYFVYSKLNVQKSNWEAGNTFTCSVLHEGLHNHHTEKSLSHSPGK
light: MDMRVPAQLLGLLLLWLRGARCDVVMTQTPLSLPVSLGDQASISCRSSQSLVHSNGNTYLHWYLQKPGQSPNLLISKVSNRFSGVPERFSGSGSGTDFTLKISRVEAEDLGVYFCSQNTHVPWTFGGGTKLEIKRADAAPTVSIFPPSSEQLTSGGASVVCFLNNFYPKDINVKWKIDGSERQNGVLNSWTDQDSKDSTYSMSSTLTLTKDEYERHNSYTCEATHKTSTSPIVKSFNRNEC
modifications: mAb20 heavy chain; mAb20 light chain
- binding affinity (ZnT8 [5]): subnanomolar
